Laboratory results taken from US20110112187A1, “Use Of Tranilast And Derivatives Thereof For The Therapy Of Neurological Conditions” (priority 2007, published 2011).

How the values were obtained:
neural stem cells = experiment: In vitro differentiation assay on adult neuronal stem cells (beta-III-tubulin promoter dual luciferase reporter); assay type: cell-based, rat; details: 48 hrs; concentration ranges within 0.01 to 100 μM; versus sham treated cells
Text: The neuroregenerative effect of the compounds according to the present invention can be assayed in vitro by measuring their stimulation of the differentiation of neuronal stem cells. Therefore, adult neuronal stem cells have to be isolated and subsequently cultivated in a suitable culture medium. After several passages in vitro the stem cells have to be co-transfected with a DNA construct coding for two discriminable reporter proteins one of them under the control of a constitutive promoter and the other under the control of a beta-III-tubulin promoter. The beta-III-tubulin promoter is induced during the process of neuronal stem cell differentiation; therefore the reporter protein under the control of this promoter serves as a marker for the stem cell differentiation in such an in vitro dual reporter assay (Schneider et al., J Clin Investigation 2005; 115:2083-2098). The person skilled in the art knows several suitable constitutive promoters such as the SV40-promoter, the TK-promoter, or the CMV-promoter. As discriminable reporter proteins for such a dual reporter assay one can use discriminable luciferases such as firefly luciferase and Renilla luciferase. The transfected cells have to be incubated with the test compound and with positive and negative controls for normalization and background correction. As a positive control compound one can use retinoic acid (Guan et al., Cell Tissue Res. 2001; 305:171-176; Jacobs et al., Proc. Natl. Acad. Sci. USA 2006; 103:3902-3907), a suitable negative control is the sham treatment of the cells. The neroregenerative activity of the test compound is determined as the ratio of the signal of the beta-III-tubulin promoter controlled reporter versus the signal of the constitutively expressed reporter and is expressed as fold from the control. This assay is suitable to assess the neuroregenerative activity of tranilast and derivatives thereof, but also can be used to screen for other potential neuroregenerative compounds. Preferably, such a screening can be used to test compounds which are already known to be suitable as a medicament in terms of its toxicology, bioavailability, solubility, stability etc.
Neural stem cells were isolated from the subventricular zone of 4 week-old male Wistar rats as described (Maurer et al, Proteome Sci. 2003; 1:4). Cells were cultivated in Neurobasal medium (Invitrogen) supplemented with B27 (Invitrogen), 2 mM L-glutamine, 100 units/ml penicillin, 100 units/ml streptomycin, 20 ng/ml […] growth factor (EGF), 20 ng/ml fibroblast growth factor-2 (FGF-2), and […] heparin. Once a week the neural stem cells were passaged and experiments were performed after 4 weeks in vitro. For DNA transfection, the cells were dissociated and plated on poly-L-ornithin/laminin-coated 96-well plates at a density of 50.000 cells/well. Cotransfection with the pGL3-p-βIII-tubulin vector (100 ng/well) and the pRL SV40 vector (100 ng/well) was carried out according to the FuGene6 Transfection protocol (Roche). The pRL SV40 vector (Promega) served as an internal control vector.
To amplify the class III β-tubulin gene promoter (fragment −450-+54), rat genomic DNA was used as a template for PCR (Dennis et al., Gene 2002; 294:269-277). The amplified fragment was inserted into the Mlu I/Xho I site of the pGL3-Basic firefly luciferase reporter vector (Promega) to generate the pGL3-p-βIII-tubulin experimental vector.
After overnight incubation, the plate was decanted and given in 8-fold replicates fresh medium containing tranilast (Sigma) or vehicle. As a positive control for in vitro differentiation, stem cells were treated by adding 1 μM retinoic acid (Sigma) to the medium missing the mitogens.
After 48 hrs, the cells were harvested to prepare the cellular extracts for luciferase assay following the directions of the manufacturer (Promega). […]

SH-SY5Y neuronal cells [1] = experiment: In vitro anti-apoptosis assay (Caspase-Glo 3/7, staurosporine induced apoptosis); assay type: cell-based, human; details: for anti-apoptotic effect: reduction of the staurosporine induced apoptosis: co-incubation with staurosporine
Method: Neuroprotection is attainable via the inhibition of apoptosis of affected neurons. The anti-apoptotic effect of tranilast and its derivatives can be assayed in vitro by measuring the caspase-3 and caspase-7 activities. These members of the cysteine aspartic acid-specific protease (caspase) family play key effector roles in apoptosis in mammalian cells. Cortical neurons have to be isolated and subsequently cultivated in a suitable culture medium. The cells have to be incubated with the test compound in the presence of an apoptotic substance such as staurosporine. Parallel approaches with staurosporine alone and sham treatment of the cells serve as […] controls. The assay allows evaluating whether the test compound can compensate either completely or partially for the apoptotic effect of staurosporine. This assay is suitable to assess the neuroprotective activity of tranilast and derivatives thereof, but also can be used to screen for other potential neuroprotective compounds. Preferably, such a screening can be used to test compounds which are already known to be suitable as a medicament in terms of its toxicology, bioavailability, solubility, stability etc.
The neuroprotective effect of compounds can be assayed in vitro by measuring caspase-3 and caspase-7 activities. These members of the cysteine aspartic acid-specific protease (caspase) family play a key effector role in apoptosis in mammalian cells.
The human neuroblastoma cell-line SH-SY5Y (American Type Culture Collection) maintained in DMEM with high glucose supplemented with 20% FBS was used for the apoptosis assay. Alternatively one can analyse the apoptosis of primary cortical neurons which can be isolated from E18 rats and subsequently cultivated in suitable culture medium. 2.5×10^4 SH-SY5Y cells were seeded in 96-well plates and stimulated 24 h later with tranilast or vehicle in the presence of the apoptosis inducing compound staurosporine (0.5 μM, Calbiochem). After 5 h incubation at 37° C., caspase-Glo 3/7 reagent (Promega) containing luciferase and luminogenic substrate was added to the cells. The cleavage of the substrate by caspase-3 and caspase-7 was detected 30 min later using a luminometer (Berthold Technologies, Mithras LB 940). The Luminescence which is proportional to the amount of caspase activity serves as a measure for the apoptosis of the treated neurons. Tranilast was tested in a range from 0.8 μM to 100 μM final concentration.
Analogously to Example 3, various derivatives of tranilast (N-(3′,4′-methylenedioxycinnamoyl)-anthranilic acid (FIG. 2a (ChemBridge Corporation)), 2-(3′,4′-dimethoxycinnamoylamino)-toluene (FIG. 2b (ChemBridge Corporation)), N-cinnamoyl-anthranilic acid (FIG. 2c (ChemBridge Corporation)), and 2-(3′,4′-dimethoxycinnamoylamino)-anisole (FIG. 2d (Ambinter SARL))) have been analysed for their anti-apoptotic activity. The SH-SY5Y cells have been incubated with these derivatives (1 μM) either alone or in the presence of staurosporine (0.5 μM). Incubation with staurosporine (0.5 μM) alone served as positive control and incubation with vehicle served as negative control. In the case of 3-(4′-chlorocinnamoylamino)-anisole (FIG. 2e (Sigma)) the SH-SY5Y cells have been incubated with this derivative (1 μM) either alone or in the presence of staurosporine […]. Accordingly, incubation with staurosporine […] alone served as positive control and incubation with vehicle served as negative control. The degree of apoptosis relative to the staurosporine control is shown in FIG. 4 a (vehicle (sham): 9% staurosporine (SP): 100%; tranilast: 8%; tranilast plus staurosporine: 75%; derivative A: 3%; derivative A plus staurosporine: 27%; derivative B: 7%; derivative B plus staurosporine: 79%; derivative C: 2%; derivative C plus staurosporine: 20%; derivative D: 7%; derivative D plus staurosporine: 80%) and FIG. 4 b (vehicle (sham): 13%; staurosporine: 100%; derivative E: 6%; derivative E plus staurosporine: 25%).

SH-SY5Y neuronal cells [2] = experiment: In vitro viability assay (constitutive Renilla luciferase reporter); assay type: cell-based, human; details: 0.8 μM to 50 μM, 5 h
Method: The viability assay allows for further assessment of test compounds regarding their effect on cells such as neurons. Therefore, a stably transfected cell line (e.g. SH-SY5Y cells) with a reporter construct (e.g. a luciferase construct) has to be incubated with the test compound and in parallel with positive and negative controls (e.g. staurosporine and sham, respectively). Subsequently, the signal generated by the reporter construct serves as a readout for the viability of the cells in the presence of the test compound. The assay enables the evaluation of potential neurotoxic effects of the test compound itself. […]
SH-SY5Y neuronal cells stably transfected with a Renilla luciferase construct under the SV40 promoter were seeded in 96-well plates at a density of 2.5×10^4 cells per well. […] The Renilla luciferase activity was measured 5 h later using a luminometer (Berthold Technologies, Mithras LB 940). […]
Analogously to Example 5, various derivatives of tranilast (N-(3′,4′-methylenedioxycinnamoyl)-anthranilic acid (FIG. 2a (ChemBridge Corporation)), 2-(3′,4′-dimethoxycinnamoylamino)-toluene (FIG. 2b (ChemBridge Corporation)), N-cinnamoyl-anthranilic acid (FIG. 2c (ChemBridge Corporation)), and 2-(3′,4′-dimethoxycinnamoylamino)-anisole (FIG. 2d (Ambinter SARL))) have been analysed for their effect on the viability of neuronal cells. […]

[3] = compound 1 μM alone, FIG. 4a (control staurosporine 0.5 μM)
[4] = compound 1 μM plus staurosporine 0.5 μM, FIG. 4a

Compound	differentiation of neural stem cells to neurons (relative induction of the class III β-tubulin gene promoter controlled luciferase signal) (neural stem cells)	degree of apoptosis relative to the staurosporine control (SH-SY5Y neuronal cells [1]; [3])	degree of apoptosis relative to the staurosporine control (SH-SY5Y neuronal cells [1]; [4])	other results
O=C(C=Cc1ccc2c(c1)OCO2)Nc1ccccc1C(=O)O [derivative A, N-(3′,4′-methylenedioxycinnamoyl)-anthranilic acid]	significantly stimulates the differentiation of neural stem cells to neurons in a dose dependent manner	3%	27%	
COc1ccc(C=CC(=O)Nc2ccccc2C)cc1OC [derivative B, 2-(3′,4′-dimethoxycinnamoylamino)-toluene]	significantly stimulates the differentiation of neural stem cells to neurons in a dose dependent manner	7%	79%	
O=C(C=Cc1ccccc1)Nc1ccccc1C(=O)O [derivative C, N-cinnamoyl-anthranilic acid]	significantly stimulates the differentiation of neural stem cells to neurons in a dose dependent manner	2%	20%	
COc1ccccc1NC(=O)C=Cc1ccc(OC)c(OC)c1 [derivative D, 2-(3′,4′-dimethoxycinnamoylamino)-anisole]	significantly stimulates the differentiation of neural stem cells to neurons in a dose dependent manner	7%	80%	
COc1cccc(NC(=O)C=Cc2ccc(Cl)cc2)c1 [derivative E, 3-(4′-chlorocinnamoylamino)-anisole]	significantly stimulates the differentiation of neural stem cells to neurons in a dose dependent manner			anti-apoptotic effect: reduction of the staurosporine induced apoptosis (SH-SY5Y neuronal cells [1]): significant reduction of the staurosporine induced apoptosis; degree of apoptosis relative to the staurosporine control (SH-SY5Y neuronal cells [1]; compound 1 μM alone, FIG. 4b (control staurosporine 0.1 μM)): 6%; degree of apoptosis relative to the staurosporine control (SH-SY5Y neuronal cells [1]; compound 1 μM plus staurosporine (1 μM printed, 0.1 μM elsewhere in the source), FIG. 4b): 25%
CN[C@@H]1C[C@H]2O[C@@](C)([C@@H]1OC)n1c3ccccc3c3c4c(c5c6ccccc6n2c5c31)C(=O)NC4 [staurosporine]				degree of apoptosis relative to the staurosporine control (SH-SY5Y neuronal cells [1]; staurosporine 0.1 μM alone (positive control, reference), FIG. 4b): 100%; apoptosis (caspase-3/7 luminescence) relative to staurosporine (SH-SY5Y neuronal cells [1]; staurosporine 0.5 μM alone (positive control, reference)): 100%
COc1ccc(/C=C/C(=O)Nc2ccccc2C(=O)O)cc1OC [tranilast, 2-((3-(3,4-dimethoxyphenyl)-1-oxo-2-propenyl)amino)benzoic acid]	significantly stimulates the differentiation of neural stem cells to neurons	8%	75%	apoptosis (caspase-3/7 luminescence) relative to staurosporine (SH-SY5Y neuronal cells [1]; 0.8 μM tranilast plus 0.5 μM staurosporine, 5 h): 84%; apoptosis (caspase-3/7 luminescence) relative to staurosporine (SH-SY5Y neuronal cells [1]; 1.6 μM tranilast plus 0.5 μM staurosporine, 5 h): 74%; apoptosis (caspase-3/7 luminescence) relative to staurosporine (SH-SY5Y neuronal cells [1]; 3.1 μM tranilast plus 0.5 μM staurosporine, 5 h): 76%; apoptosis (caspase-3/7 luminescence) relative to staurosporine (SH-SY5Y neuronal cells [1]; 6.3 μM tranilast plus 0.5 μM staurosporine, 5 h): 74%; apoptosis (caspase-3/7 luminescence) relative to staurosporine (SH-SY5Y neuronal cells [1]; 12.5 μM tranilast plus 0.5 μM staurosporine, 5 h): 58%; apoptosis (caspase-3/7 luminescence) relative to staurosporine (SH-SY5Y neuronal cells [1]; 25 μM tranilast plus 0.5 μM staurosporine, 5 h): 46%; apoptosis (caspase-3/7 luminescence) relative to staurosporine (SH-SY5Y neuronal cells [1]; 50 μM tranilast plus 0.5 μM staurosporine, 5 h): 30%; apoptosis (caspase-3/7 luminescence) relative to staurosporine (SH-SY5Y neuronal cells [1]; 100 μM tranilast plus 0.5 μM staurosporine, 5 h): 15%; anti-apoptotic effect: reduction of the staurosporine induced apoptosis (SH-SY5Y neuronal cells [1]): significant reduction of the staurosporine induced apoptosis; effect on the viability of neuronal cells (Renilla luciferase activity) (SH-SY5Y neuronal cells [2]): did not show any significant effect on the viability of the neuronal cells
